Reference: patent publication US20240383942A1, “WATER-SOLUBLE ALLOPR[…], AND PREPARATION METHOD THEREFOR AND USE THEREOF” (NANJING MINOVA PHARMACEUTICAL CO., LTD., priority 2021, published 2024)
Counter-ions that a name gives are not always drawn.

Key:
[1] = Saturation solubility by external standard HPLC method; format: physicochemical; details: thermodynamic from solid; purified water, 25° C., stirred 24 h
Experimental: Preparation of an external standard solution: 50 mg of a compound to be tested was precisely weighed out, added to a 10 mL volumetric flask, and dissolved in a proper amount of purified water by ultrasonication. The solution was diluted to volume and mixed well to give an external standard solution with a concentration of 5.0 mg/mL.
The solution was stirred for dissolution for 24 h at 25° C. and centrifuged. The supernatant was taken and filtered through a 0.45 μm filter membrane, and the filtrate was collected. 1 mL of the filtrate described above was precisely measured out and added to a 5 mL measuring flask. Purified water was added to dilute the filtrate to volume, and the solution was mixed well to give a solution to be tested.
2. Determination of Saturation Solubility by External Standard Method
Chromatographic Conditions
Chromatographic column: Waters XBridge C8 3.5 μm 4.6×100 mm NRT2019-21#, column temperature: 45° C., detection wavelength: 205 nm;
Mobile phase A: a 10 mM/L (NH4)2HPO4 solution, mobile phase B: acetonitrile, isocratic elution A:B=40:60, flow rate: 1.0 mL/min;
Injection volume: 10 μL, run time: 10 min.
Purified water was used as a blank control solution, and the peak areas of the external standard solution and the standard solution were measured using a high performance liquid chromatograph with a UV detector and denoted as Aexternal standard and Ato be tested, respectively.

[2] = in the human body; cited from earlier work
[3] = In vitro metabolic study in human liver microsome incubation system; details: for Concentration of the compound to be tested (parent): human liver microsomes 0.5 mg protein/mL, NADPH, 37° C.
Experimental: Instruments, conditions and parameters: liquid chromatography-mass spectrometry system (LC/MS/MS, Shimadzu LC 30-AD, MS API 4000); the chromatographic column was ACQUITY UPLC BEH C18 column (1.7 μm 2.1×50 mm Column, Part No. 186002350); the mobile phase was acetonitrile-water-formic acid (50:50:0.1); the flow rate was 0.7 mL/min; the injection volume was 5μL; the column temperature was room temperature. An electrospray ionization (ESI) source was adopted with a spray voltage of 4.8 KV; the capillary temperature (TEM) was 300° C.; the sheath gas was N2, and the flow rate was 10 psi; the auxiliary gas was N2, and the flow rate was 1 psi; the collision-induced dissociation (CID) gas was Ar, and the pressure was 1.5 mTorr. The mass spectrometry scan mode was mass spectrometry multiple reaction monitoring (MRM), and the positive ion mode was used for detection.
About 10 mg of each of the samples to be tested was precisely weighed out and dissolved in 0.1 mL of DMSO, and the solution was stepwise diluted with purified water to prepare 10 μM and 1 μM standard stock solutions. In an ice bath, the detection incubation system was prepared according to Table 3. NADPH was added to the incubation system (see Table 4 for its composition) to start a reaction, and 50 μL of the resulting mixture was taken immediately and added to 150 μL of acetonitrile as a time-zero sample and a 1 μM standard curve sample. Another 1 μM standard stock solution was added to the incubation system, and 50 μL of the resulting mixture was taken immediately and added to 150 μL of acetonitrile as a 0.1 μM standard curve sample. […] Each sample was shaken and centrifuged at 18,000 g for 10 min, and a sample of the supernatant was taken and injected for LC/MS/MS analysis.

hERG potassium channel = hERG potassium channel (Homo sapiens, UniProt Q12809); assay: Manual patch clamp assay of hERG potassium channel current in CHO-hERG cells
Sequence of hERG potassium channel (Q12809 whole entry): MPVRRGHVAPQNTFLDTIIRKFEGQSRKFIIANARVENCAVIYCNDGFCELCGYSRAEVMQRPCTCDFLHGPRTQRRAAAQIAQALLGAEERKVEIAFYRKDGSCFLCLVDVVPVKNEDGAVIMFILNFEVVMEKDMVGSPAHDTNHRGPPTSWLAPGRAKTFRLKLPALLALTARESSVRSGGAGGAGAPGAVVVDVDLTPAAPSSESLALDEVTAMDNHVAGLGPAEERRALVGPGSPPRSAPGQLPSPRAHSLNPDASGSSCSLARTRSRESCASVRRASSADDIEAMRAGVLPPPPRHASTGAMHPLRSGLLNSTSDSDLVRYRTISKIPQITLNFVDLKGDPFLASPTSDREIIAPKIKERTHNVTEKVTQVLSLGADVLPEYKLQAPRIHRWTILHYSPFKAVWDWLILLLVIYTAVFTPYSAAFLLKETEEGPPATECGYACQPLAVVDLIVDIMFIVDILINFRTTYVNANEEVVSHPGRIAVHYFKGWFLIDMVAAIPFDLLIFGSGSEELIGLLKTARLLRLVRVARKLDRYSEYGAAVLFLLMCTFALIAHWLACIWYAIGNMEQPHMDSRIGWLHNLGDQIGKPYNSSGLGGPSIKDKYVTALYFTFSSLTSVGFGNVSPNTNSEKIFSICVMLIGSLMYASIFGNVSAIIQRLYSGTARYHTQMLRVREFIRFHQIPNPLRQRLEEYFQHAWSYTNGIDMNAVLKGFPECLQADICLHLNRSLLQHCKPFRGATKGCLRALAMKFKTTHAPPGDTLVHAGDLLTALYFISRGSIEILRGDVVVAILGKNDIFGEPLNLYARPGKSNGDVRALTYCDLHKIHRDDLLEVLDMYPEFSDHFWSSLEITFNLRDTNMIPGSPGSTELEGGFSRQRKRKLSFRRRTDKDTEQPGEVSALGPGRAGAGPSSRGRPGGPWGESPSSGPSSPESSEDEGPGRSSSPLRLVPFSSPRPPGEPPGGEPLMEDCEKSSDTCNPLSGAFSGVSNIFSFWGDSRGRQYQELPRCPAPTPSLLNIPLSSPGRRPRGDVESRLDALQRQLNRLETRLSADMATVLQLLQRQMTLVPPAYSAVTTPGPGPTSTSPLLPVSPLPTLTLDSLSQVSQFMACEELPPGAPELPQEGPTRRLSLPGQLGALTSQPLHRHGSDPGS
Experimental: The manual patch clamp method was used to measure the effect of the compounds on hERG potassium channel current stably expressed in Chinese hamster ovary cells.
Manual patch clamp assay method:
CHO-hERG cells in the exponential growth phase were collected and resuspended in ECS (extracellular solution) for later use. The cells were seeded in a cell recording chamber, and the chamber was placed on the stage of an inverted microscope. One of the cells in the tank was randomly selected for testing. The perfusion system was fixed onto the stage of the inverted microscope, and the cell was perfused continuously with ECS. […]
The clamping voltage was −80 mV. […] The peak value of the tail current was measured and used for analysis. […] In the initial stage of recording the perfusion with the solvent control working solution, the peak value of the tail current was monitored until 3 or more scanning curves were stabilized, and then perfusion was performed with the test sample/positive control working solution to be tested until the inhibitory effect of the test sample/positive control working solution on the peak value of the hERG current reached a stable state.
The hERG current was recorded under the whole cell patch clamp technology at room temperature. […] Data were collected and recorded by Patchmaster Pro software and processed using Origin 8E software, and hERG IC50 values were calculated.

Row | Compound | solubility at 24 h [1] [mg/mL] | plasma half-life [2] | Concentration of the compound to be tested (parent) ([3]; incubation time 0 min) [nM] | Concentration of the compound to be tested (parent) ([3]; incubation time 5 min) [nM] | Concentration of the compound to be tested (parent) ([3]; incubation time 15 min) [nM] | Concentration of the compound to be tested (parent) ([3]; incubation time 30 min) [nM] | Concentration of the compound to be tested (parent) ([3]; incubation time 45 min) [nM] | Concentration of the compound to be tested (parent) ([3]; incubation time 60 min) [nM] | IC50 (hERG potassium channel) [nM] | concentration of allopregnanolone resulting from metabolism reaching a stable level (in words) ([3]; liver microsome system)
1 | CC(=O)[C@H]1CC[C@H]2[C@@H]3CC[C@H]4C[C@H](O)CC[C@]4(C)[C@H]3CC[C@]12C [Allopregnanolone, 3α-OH-5α-pregnan-20-one] | < 0.01 | about 45 minutes | 1000 | 626 | 414 | 259 | 150 | 119 | – | –
2 | CC(=O)[C@H]1CC[C@H]2[C@@H]3CC[C@H]4C[C@H](OC(=O)[C@@H](N)C(C)C)CC[C@]4(C)[C@H]3CC[C@]12C [Comparative compound 1] | – | – | 1000 | 801 | 680 | 484 | 306 | 256 | 770 | unable to achieve a stable level
3 | [2H]C([2H])([2H])C([C@H](N)C(=O)O[C@@H]1CC[C@@]2(C)[C@@H](CC[C@@H]3[C@@H]2CC[C@]2(C)[C@@H](C(C)=O)CC[C@@H]32)C1)C([2H])([2H])[2H] [Compound 2 hydrochloride] | 36.1 | – | – | – | – | – | – | – | – | –
4 | [2H]C(N)(C(=O)O[C@@H]1CC[C@@]2(C)[C@@H](CC[C@@H]3[C@@H]2CC[C@]2(C)[C@@H](C(C)=O)CC[C@@H]32)C1)C(C)C (stereo partly drawn) [Compound 3 hydrochloride] | 19 | – | – | – | – | – | – | – | – | –
5 | [2H]C(C)(C)[C@H](N)C(=O)O[C@@H]1CC[C@@]2(C)[C@@H](CC[C@@H]3[C@@H]2CC[C@]2(C)[C@@H](C(C)=O)CC[C@@H]32)C1 [Compound 1] | – | – | 1000 | 956 | 874 | 575 | 423 | 352 | 1930 | –
6 | C[C@]12CC[C@H]3[C@@H](CCC4=CC(=O)CC[C@@]43C)[C@@H]1CC[C@@H]2O [Testosterone, testosterone] | – | – | 1000 | 677 | 379 | 155 | 63 | 44 | – | –
7 | CC(=O)[C@H]1CC[C@H]2[C@@H]3CC[C@H]4C[C@H](OC(=O)[C@@H](N)C(C)C)CC[C@]4(C)[C@H]3CC[C@]12C [Comparative compound 1 hydrochloride] | 29.9 | – | – | – | – | – | – | – | – | –
8 | O=C(O)Cc1ccccc1Nc1c(Cl)cccc1Cl [Diclofenac, diclofenac] | – | – | 1000 | 374 | 77 | 8 | 1 | 1 | – | –
9 | [2H]C(C)(C)[C@H](N)C(=O)O[C@@H]1CC[C@@]2(C)[C@@H](CC[C@@H]3[C@@H]2CC[C@]2(C)[C@@H](C(C)=O)CC[C@@H]32)C1 [Compound 1 hydrochloride] | 31.2 | – | – | – | – | – | – | – | – | –
